# Test results: patent US20160166604A1, “Thiol-Sensitive Positive Inotropes” (priority 2005, published 2016)
# Entries after “also recorded” stand apart in the source; their conditions may differ.
# Tests used:
# [1] = End-diastolic pressure-volume relationship (EDPVR) in chronically instrumented dogs with pacing-induced cardiac failure; type: in vivo; settings: CHF dog preparations
# Protocol: Adult male mongrel dogs (22-25 kg) were chronically instrumented for pressure-dimension analysis as described. See, Paolocci et al., “Positive Inotropic and Lusitropic Effects of HNO/NO− in Failing Hearts: Independence from Beta-Adrenergic Signaling,” Proc. Natl. Acad. Sci. USA., 100, 5537-5542 (2003); and Senzaki et al., Circulation, 101, 1040-1048 (2000). Animals were anesthetized with 1% to 2% halothane after induction with sodium thiopental (10-20 mg/kg, i.v.). The surgical/experimental animal protocol was approved by the Johns Hopkins University Animal Care and Use Committee. […] Cardiac failure was induced by rapid ventricular pacing for 3 weeks as described. See, Paolocci et al., supra, and Senzaki et al., supra.
# Hemodynamic data were digitized at 250 Hz. […] These relations strongly correlate with results from pressure-volume data in normal and failing hearts, as previously validated. Cardiovascular function was assessed by stroke dimension, fractional shortening (stroke dimension/end-diastolic dimension [EDD]), estimated cardiac output (stroke dimension×HR), peak rate of pressure rise (dP/dtmax), end-systolic elastance (Ees, slope of end-systolic pressure-dimension relation [ESPDR]), the slope of dP/dtmax-EDD relation (DEDD) (see, Little, Circ Res., 56:808-815 (1985)), pre-recruitable stroke work (PRSW), (based on dimension-data), estimated arterial elastance (Ea, end systolic pressure/stroke dimension) and estimated total resistance (RT, […]). Ees, DEDD and PRSW provide load-insensitive contractility measures.
# The end-diastolic pressure-volume relationship (EDPVR) was determined applying non-linear regression analysis to the end-diastolic pressure and volume points (Ped and Ved, respectively), according to Kass, Cardiol Clin., 18, 571-86 (2000) (Review).
# In order to evaluate the impact of each pharmacological intervention on the EDPVR, changes in end-diastolic pressure from baseline (ΔPed) at volumes providing baseline end-diastolic pressure of […] mmHg EDP (V10, V15, V20, respectively) were determined (FIG. 5).
# [2] = target: T1, RyR2 (Mus musculus, UniProt E9Q401); assay: Spontaneous Ca2+ sparks and spark frequency in intact murine myocytes; type: cell-based; settings: for effect on Ca2+ sparks in control and AS (0.5 mM) cells: thapsigargin 10 μM, 30 min, ryanodine 10 μM
# T1 construct: endogenous in cells; host or cells: freshly isolated adult mouse cardiac myocytes
# Protocol: Freshly isolated mouse cardiac myocytes were loaded with the Ca^2+ indicator fluo-4/AM (Molecular Probes, 20 μM for 30 min). Confocal images were acquired using a confocal laser-scanning microscope (LSM510, Carl Zeiss) with a Zeiss Plan-Neofluor 40× oil immersion objective (NA≈1.3). Fluo-4/AM was excited by an argon laser (488 nm), and fluorescence was measured at >505 nm. Images were taken in the line-scan mode, with the scan line parallel to the long axis of the myocytes. Each image consisted of 512 line scans obtained at 1.92 ms intervals, each comprising 512 pixels at 0.10 μm separation. Digital image analysis used customer-designed programs coded in Interactive Data language (IDL) and a modified spark detection algorithm. Cheng, H. et al., Biophys. J., 76, 606-617 (1999).
# Nitroxyl (HNO) confers positive inotropy in vivo. Here, it was determined whether HNO action stems from a direct influence on sarcoplasmic reticulum (SR) Ca^2+ cycling, involving enhanced Ca^2+ release from ryanodine receptors (RyR2). Myocytes were isolated from ST mice, suspended in Tyrode's solution (1 mM Ca^2+) and field stimulated (0.5 Hz, 25° C.). Sarcomere shortening (SS) was assessed by real-time image analysis, Ca^2+ transients from Indo-1 fluorescence. RyR2 activity was determined by optical imaging of Ca^2+ release from single Ca^2+ release units. The HNO donor Angeli's Salt (AS) induced dose-dependent inotropy (SS: 73±31% at 0.5 mM; 131±31% at 1 mM; all n=15, p<0.05 vs. base; <0.1 mM: no effect). In contrast, the NO donor DEA/NO reduced SS by 55-65% at 5-50 μM (both p<0.05 vs. base), with no effect at higher doses. […] However, co-infusion with the thiol-donating compound N-acetyl-L-cysteine (NAC, 3 mM) abolished AS inotropy.
# [3] = target: T2, SR Ca2+ pump (SERCA2a) (Mus musculus, UniProt O55143); assay: ATP-dependent Ca2+ uptake by murine cardiac SR vesicles (stopped-flow, arsenazo III); type: biochemical
# T2 construct: Crude cardiac microsomal vesicles containing fragmented sarcoplasmic reticulum (SR) were prepared; from tissue; host or cells: pooled hearts of C57 male mice (crude SR microsomal vesicles)
# Protocol: Crude cardiac microsomal vesicles containing fragmented sarcoplasmic reticulum (SR) were prepared as previously described for rat heart. Froehlich, J. P. et al., J. Mol. Cell. Cardiol., 10, 427-438 (1978). Pooled hearts from C57 male mice sacrificed by cervical dislocation were placed in 0.9% saline on ice, trimmed of atrial and connective tissue, and weighed. The finely minced heart muscle was homogenized in 10 mM NaHCO3 using a Polytron blender and the SR vesicles were separated from the myofilaments, mitochondria and nuclear membranes by differential centrifugation at 8,500 and 45,000×g. SR vesicles suspended in 0.25 M sucrose+10 mM MOPS, pH 7.0 were frozen and stored in liquid nitrogen prior to use. Twenty minutes prior to measuring Ca^2+ uptake, cardiac SR vesicles (1 mg/ml in storage buffer) were incubated with 250 μM AS delivered from a freshly-prepared 10 mM stock solution of AS (Na2N2O3) dissolved in 10 mM NaOH. […] Stopped-flow mixing was used to measure the initial time course of Ca^2+ accumulation by murine cardiac SR vesicles using the Ca^2+ indicator dye, arsenazo III. Membrane vesicles (0.4 mg/ml) suspended in a medium containing 100 mM KCl, 1 mM MgCl2, 50 μM arsenazo III, 5 mM sodium azide, and 20 mM MOPS, pH 7.4, were mixed with an equal volume of an identical medium containing 1 mM Na2ATP at 24° C. in a manually-operated stopped-flow apparatus (Applied Photophysics, Ltd.). The change in [Ca^2+] in the mixing cuvette was monitored using a single-beam UV-VIS spectrophotometer (AVIV, Model 14DS) with a monochromator setting of 650 nm. The total [Ca^2+] in the uptake medium was 0.5 μM, yielding a free [Ca^2+] in equilibrium with the Ca-arsenazo III complex of 0.2 μM (KA=3.3×10^4 M^−1). […] The time-dependent decrease in absorbance at 650 nm, reflecting Ca^2+ uptake by the SR vesicles, was monitored for 30-60 s at 0.1 s intervals. […] The signal change due to vesicle light scattering was evaluated from separate measurements conducted under identical conditions at the isosbestic wavelength of 693 nm. For evaluation of the time course of Ca^2+ uptake, a representative trace at 693 nm was subtracted from each of the individual traces at 650 nm acquired under identical conditions. The kinetic and thermodynamic parameters for Ca^2+ uptake were evaluated by fitting stopped-flow signals to one- and two-exponential decay functions plus a residual term using non-linear regression (Prism, Version 3.03). Residual plots of the difference between the fitted curve and data points were used to evaluate systematic errors in the fits and to calculate the sum-of-squares error used in selecting the best fit.
# To test whether HNO directly enhances SR Ca^2+ uptake, its effects on SR membrane vesicles isolated from pooled C57/Bl6 mouse hearts were studied. Crude SR microsomal vesicles were incubated with 250 μM AS prior to measuring ATP-dependent Ca uptake by stopped-flow mixing at 24° C. Arsenazo III, a mid-range Ca indicator, was used to monitor Ca removal from the eravesicular compartment and buffer the free [Ca^2+] at a level producing half-saturation of the Ca^2+ pump (˜0.2 μM).
# [4] = tested on: cardiac myocytes from WT and Gαq overexpressing FVB/N mice; assay: Sarcomere shortening in cardiac myocytes from WT and Gαq overexpressing mice; type: cell-based, mouse; settings: for enhancement of sarcomere shortening: WT cells
# Protocol: Cardiac myocytes were isolated from WT and Gαq overexpressing 2-6 month old FVB/N mice, suspended in Tyrode's solution (1 mM calcium) and field stimulated at 0.5 Hz at 23° C. Sarcomere shortening (SS) was assessed by real-time image analysis; data are presented at steady-state (10 minutes drug infusion).
# [5] = tested on: isolated mouse ventricular myocytes; assay: Sarcomere shortening in field-stimulated isolated mouse ventricular myocytes; type: cell-based
# Protocol: Wild type 2-4 month old mice were anesthetized with intraperitoneal pentobarbital sodium (100 mg/kg/ip). Hearts were perfused as previously described. Mongillo, M. et al., Circ. Res., 98, 226-234 (2006). To assess for sarcomere shortening, cells were imaged using field stimulation (Warner instruments) in an inverted fluorescence microscope (Diaphot 200; Nikon, Inc). Sarcomere length was measured by real-time Fourier transform (IonOptix MyoCam, CCCCD100M) and cell twitch amplitude is expressed as a percentage of resting cell length. Twitch kinetics was quantified by measuring the time to peak shortening and the time from peak shortening to 50% relaxation. For whole calcium transient measurements, myocytes were loaded with the Ca^2+ indicator fluo-4/AM (Molecular Probes, 20 μM for 30 min) and Ca^2+ transients were measured under field-stimulation at 0.5 Hz in perfusion solution by confocal laser scanning microscope (LSM510, Carl Zeiss). Digital image analysis used customer-designed programs coded in Interactive Data Language (IDL).
# Nitroxyl (HNO) confers positive inotropy in vivo. Here, it was determined whether HNO action stems from a direct influence on sarcoplasmic reticulum (SR) Ca^2+ cycling, involving enhanced Ca^2+ release from ryanodine receptors (RyR2). Myocytes were isolated from ST mice, suspended in Tyrode's solution (1 mM Ca^2+) and field stimulated (0.5 Hz, 25° C.). Sarcomere shortening (SS) was assessed by real-time image analysis, Ca^2+ transients from Indo-1 fluorescence. RyR2 activity was determined by optical imaging of Ca^2+ release from single Ca^2+ release units.
# T1 sequence (E9Q401 whole entry): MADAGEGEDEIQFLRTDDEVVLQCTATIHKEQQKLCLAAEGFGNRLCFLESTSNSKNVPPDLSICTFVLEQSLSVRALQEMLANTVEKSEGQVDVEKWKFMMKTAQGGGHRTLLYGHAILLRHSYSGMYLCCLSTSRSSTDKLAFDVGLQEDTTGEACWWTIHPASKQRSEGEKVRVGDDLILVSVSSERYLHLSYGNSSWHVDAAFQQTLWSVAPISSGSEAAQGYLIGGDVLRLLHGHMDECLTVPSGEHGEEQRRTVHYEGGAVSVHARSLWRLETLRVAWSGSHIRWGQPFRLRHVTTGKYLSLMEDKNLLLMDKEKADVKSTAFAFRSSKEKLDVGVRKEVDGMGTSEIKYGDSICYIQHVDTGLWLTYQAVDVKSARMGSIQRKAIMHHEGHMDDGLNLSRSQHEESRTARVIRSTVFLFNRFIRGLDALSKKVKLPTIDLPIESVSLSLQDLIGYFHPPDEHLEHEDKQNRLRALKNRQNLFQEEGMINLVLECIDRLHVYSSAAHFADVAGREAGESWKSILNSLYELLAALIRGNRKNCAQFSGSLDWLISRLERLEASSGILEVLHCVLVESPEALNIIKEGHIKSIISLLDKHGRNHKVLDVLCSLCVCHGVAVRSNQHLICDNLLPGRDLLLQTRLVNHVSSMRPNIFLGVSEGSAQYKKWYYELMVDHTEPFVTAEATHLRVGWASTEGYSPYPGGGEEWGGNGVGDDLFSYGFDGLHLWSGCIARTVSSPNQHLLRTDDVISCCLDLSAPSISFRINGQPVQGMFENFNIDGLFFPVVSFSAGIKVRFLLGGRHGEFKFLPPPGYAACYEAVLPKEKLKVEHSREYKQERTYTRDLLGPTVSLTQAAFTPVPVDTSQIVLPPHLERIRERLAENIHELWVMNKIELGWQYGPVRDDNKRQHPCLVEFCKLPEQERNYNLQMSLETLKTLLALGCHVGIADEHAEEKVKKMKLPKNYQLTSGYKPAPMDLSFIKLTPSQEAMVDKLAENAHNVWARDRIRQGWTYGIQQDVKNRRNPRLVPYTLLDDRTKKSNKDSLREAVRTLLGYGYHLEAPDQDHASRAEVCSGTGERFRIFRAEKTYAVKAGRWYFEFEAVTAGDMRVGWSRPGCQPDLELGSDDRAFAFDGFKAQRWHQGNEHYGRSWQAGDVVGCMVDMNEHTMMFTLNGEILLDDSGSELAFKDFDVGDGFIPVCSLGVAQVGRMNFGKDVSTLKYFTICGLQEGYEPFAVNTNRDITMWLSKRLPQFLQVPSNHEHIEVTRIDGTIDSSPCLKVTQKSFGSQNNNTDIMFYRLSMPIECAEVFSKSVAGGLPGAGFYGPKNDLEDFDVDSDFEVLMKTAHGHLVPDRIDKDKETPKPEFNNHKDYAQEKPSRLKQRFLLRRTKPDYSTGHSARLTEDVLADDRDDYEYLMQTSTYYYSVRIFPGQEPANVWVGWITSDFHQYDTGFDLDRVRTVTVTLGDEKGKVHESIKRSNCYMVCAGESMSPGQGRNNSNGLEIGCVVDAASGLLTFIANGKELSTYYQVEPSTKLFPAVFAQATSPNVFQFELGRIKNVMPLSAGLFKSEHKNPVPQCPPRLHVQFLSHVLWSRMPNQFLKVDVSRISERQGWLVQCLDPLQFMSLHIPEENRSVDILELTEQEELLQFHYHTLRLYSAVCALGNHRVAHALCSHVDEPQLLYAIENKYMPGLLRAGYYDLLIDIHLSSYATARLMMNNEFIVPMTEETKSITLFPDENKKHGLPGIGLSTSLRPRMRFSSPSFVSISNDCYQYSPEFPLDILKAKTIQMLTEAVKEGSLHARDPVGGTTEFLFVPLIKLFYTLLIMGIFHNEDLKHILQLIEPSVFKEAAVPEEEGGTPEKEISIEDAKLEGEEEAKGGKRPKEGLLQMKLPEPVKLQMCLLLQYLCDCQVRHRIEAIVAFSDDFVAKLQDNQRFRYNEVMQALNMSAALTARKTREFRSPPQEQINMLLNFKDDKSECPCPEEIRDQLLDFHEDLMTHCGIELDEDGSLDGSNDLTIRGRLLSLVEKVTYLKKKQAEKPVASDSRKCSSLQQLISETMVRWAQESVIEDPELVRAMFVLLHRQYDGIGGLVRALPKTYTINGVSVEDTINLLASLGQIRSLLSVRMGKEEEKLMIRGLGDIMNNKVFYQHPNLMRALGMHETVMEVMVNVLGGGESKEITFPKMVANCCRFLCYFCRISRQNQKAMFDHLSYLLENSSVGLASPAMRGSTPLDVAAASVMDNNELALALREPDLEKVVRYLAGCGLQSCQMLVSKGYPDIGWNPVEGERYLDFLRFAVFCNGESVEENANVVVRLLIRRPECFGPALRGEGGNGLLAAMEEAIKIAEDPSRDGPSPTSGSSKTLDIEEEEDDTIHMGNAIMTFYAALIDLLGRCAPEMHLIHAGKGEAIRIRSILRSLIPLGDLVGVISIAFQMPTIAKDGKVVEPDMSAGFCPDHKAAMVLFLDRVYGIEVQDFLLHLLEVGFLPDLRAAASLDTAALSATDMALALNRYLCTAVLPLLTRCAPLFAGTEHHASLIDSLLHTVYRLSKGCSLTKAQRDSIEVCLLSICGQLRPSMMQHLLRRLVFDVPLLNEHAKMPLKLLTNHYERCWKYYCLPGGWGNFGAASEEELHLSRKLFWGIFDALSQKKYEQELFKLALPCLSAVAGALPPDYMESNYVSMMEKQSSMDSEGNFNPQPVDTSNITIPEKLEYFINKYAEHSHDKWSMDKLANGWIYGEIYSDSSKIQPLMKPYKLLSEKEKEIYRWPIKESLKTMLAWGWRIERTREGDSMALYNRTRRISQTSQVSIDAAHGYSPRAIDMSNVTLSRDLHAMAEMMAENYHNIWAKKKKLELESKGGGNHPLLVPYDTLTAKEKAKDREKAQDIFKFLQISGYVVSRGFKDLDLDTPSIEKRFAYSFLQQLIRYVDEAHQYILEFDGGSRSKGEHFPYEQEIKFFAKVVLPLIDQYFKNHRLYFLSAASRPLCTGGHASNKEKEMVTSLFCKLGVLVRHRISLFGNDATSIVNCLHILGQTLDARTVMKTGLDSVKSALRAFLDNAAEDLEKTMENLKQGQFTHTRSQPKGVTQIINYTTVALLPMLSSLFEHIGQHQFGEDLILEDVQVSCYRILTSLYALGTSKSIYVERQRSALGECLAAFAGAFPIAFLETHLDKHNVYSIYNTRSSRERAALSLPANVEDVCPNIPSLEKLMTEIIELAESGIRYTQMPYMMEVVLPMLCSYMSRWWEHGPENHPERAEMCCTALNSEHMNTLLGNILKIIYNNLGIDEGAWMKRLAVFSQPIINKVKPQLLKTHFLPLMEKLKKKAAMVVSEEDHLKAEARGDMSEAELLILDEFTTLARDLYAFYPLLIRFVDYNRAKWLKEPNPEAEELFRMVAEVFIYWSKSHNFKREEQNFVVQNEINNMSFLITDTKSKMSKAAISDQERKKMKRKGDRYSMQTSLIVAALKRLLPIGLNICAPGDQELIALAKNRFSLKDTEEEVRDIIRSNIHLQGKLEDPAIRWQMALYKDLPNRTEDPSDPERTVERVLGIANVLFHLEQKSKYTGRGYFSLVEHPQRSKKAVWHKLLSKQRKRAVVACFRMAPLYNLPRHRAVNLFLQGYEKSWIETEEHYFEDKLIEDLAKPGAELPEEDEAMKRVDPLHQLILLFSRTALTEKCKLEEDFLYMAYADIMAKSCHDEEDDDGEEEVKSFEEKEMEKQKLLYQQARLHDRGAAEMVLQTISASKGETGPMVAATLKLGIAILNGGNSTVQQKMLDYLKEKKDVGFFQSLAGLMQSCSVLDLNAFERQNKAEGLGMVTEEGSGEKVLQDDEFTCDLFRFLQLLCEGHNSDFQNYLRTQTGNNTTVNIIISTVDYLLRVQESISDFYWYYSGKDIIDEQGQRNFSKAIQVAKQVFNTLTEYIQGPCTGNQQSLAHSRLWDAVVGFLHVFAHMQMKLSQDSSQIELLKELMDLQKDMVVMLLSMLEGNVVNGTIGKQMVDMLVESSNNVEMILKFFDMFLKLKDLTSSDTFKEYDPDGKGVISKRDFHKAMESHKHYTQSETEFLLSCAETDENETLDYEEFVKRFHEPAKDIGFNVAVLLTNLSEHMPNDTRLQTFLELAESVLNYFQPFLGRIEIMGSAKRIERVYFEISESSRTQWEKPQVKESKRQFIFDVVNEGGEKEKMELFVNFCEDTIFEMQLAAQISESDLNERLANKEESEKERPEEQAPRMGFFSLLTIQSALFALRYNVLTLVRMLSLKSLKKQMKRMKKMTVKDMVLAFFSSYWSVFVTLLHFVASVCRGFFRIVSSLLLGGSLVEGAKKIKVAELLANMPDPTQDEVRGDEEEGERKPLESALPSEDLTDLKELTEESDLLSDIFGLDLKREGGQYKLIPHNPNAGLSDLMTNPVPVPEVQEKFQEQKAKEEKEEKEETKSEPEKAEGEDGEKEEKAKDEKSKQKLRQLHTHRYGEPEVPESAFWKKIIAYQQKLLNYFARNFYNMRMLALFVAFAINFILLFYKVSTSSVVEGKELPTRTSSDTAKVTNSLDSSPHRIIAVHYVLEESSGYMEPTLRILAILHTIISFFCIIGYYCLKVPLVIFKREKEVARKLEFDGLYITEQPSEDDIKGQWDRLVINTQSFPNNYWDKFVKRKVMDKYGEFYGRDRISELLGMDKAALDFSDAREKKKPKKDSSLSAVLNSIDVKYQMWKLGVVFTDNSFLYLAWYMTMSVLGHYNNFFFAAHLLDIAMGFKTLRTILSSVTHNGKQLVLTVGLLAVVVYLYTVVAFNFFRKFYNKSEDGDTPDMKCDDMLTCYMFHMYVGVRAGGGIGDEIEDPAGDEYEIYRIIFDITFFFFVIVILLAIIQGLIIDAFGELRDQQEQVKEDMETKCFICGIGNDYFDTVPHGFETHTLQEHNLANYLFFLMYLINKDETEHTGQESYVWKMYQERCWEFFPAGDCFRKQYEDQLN
compound,measurement,setting,value
"O=[N+]([O-])OCC(CO[N+](=O)[O-])O[N+](=O)[O-] [NTG, nitroglycerin]",effect on end-diastolic pressure-volume relationship (EDPVR),[1],parallel down-ward shift
same,effect on end-diastolic pressure-volume relationship (EDPVR),[1]; listed as nitroglycerin,parallel downward shift
C/C=C(/C)C(=O)O[C@H]1C(C)=C2[C@H]([C@@H]1OC(=O)CCCCCCC)[C@@](C)(OC(C)=O)C[C@H](OC(=O)CCC)[C@@]1(O)[C@H]2OC(=O)[C@@]1(C)O [thapsigargin],effect on Ca2+ sparks in control and AS (0.5 mM) cells,[2],abolished
same,effect on SR vesicle Ca2+ uptake,[3]; thapsigargin 10 μM,abolished
CNc1ccc2oc(C[C@H]3O[C@@]4(CC[C@H]3C)O[C@H]([C@H](C)C(=O)c3ccc[nH]3)[C@H](C)C[C@H]4C)nc2c1C(=O)O [A23187],decrease of total Ca2+ uptake,"[3]; A23187 pre-incubation, 5 μg ionophore/mg SR protein",> 50%
"C=C[C@@]1(C)CC(=O)[C@]2(O)[C@@]3(C)[C@@H](O)CCC(C)(C)[C@@H]3[C@H](O)[C@H](OC(C)=O)[C@@]2(C)O1 [FSK, forskolin]",increase in sarcomere shortening,"[4]; Gαq myocytes, 25 nM FSK",85±9%
same,increase in sarcomere shortening,"[4]; Gαq myocytes, 100 nM FSK",158±62%
"CC(C)NCC(O)c1ccc(O)c(O)c1 (centres unmarked) [ISO, isoproterenol]",contractile response,"[4]; Gαq myocytes, ISO 2.5 and 10 nM",did not elicit any contractile response
same,enhancement of sarcomere shortening,[4]; ISO 2.5 nM,74±24%
same,enhancement of sarcomere shortening,[4]; ISO 10 nM,250±75%
same,increase in sarcomere shortening,"[5]; ISO 2.5 nM, n=30",100±27%
same,effect of PKA inhibitor Rp-CPT-cAMPs on the agent's enhancement of sarcomere shortening,[5]; Rp-CPT-cAMPs 100 μM pre-treatment,blunts
ryanodine,effect on Ca2+ sparks in control and AS (0.5 mM) cells,[2],abolished
"CCN(CC)[N+]([O-])=N[O-].[Na+] [DEA/NO, sodium 2-(N,N-diethylamino)-diazenolate-2-oxide]",effect on end-diastolic pressure-volume relationship (EDPVR),[1],parallel down-ward shift
same,effect of co-application on ISO (2.5 nM)-stimulated sarcomere shortening,"[5]; DEA/NO 0.25 mM, AS 0.5 mM",markedly blunted
same,reduction of sarcomere shortening,[5]; DEA/NO 5-50 μM,55-65%
same,effect of PKG inhibitor Rp-8Br-cGMPs on the agent's inotropy,[5]; Rp-8Br-cGMPs 10 μM pre-treatment,modest positive response
same,reproduction of AS increase in sarcomere shortening by equimolar NO donor,[5]; equimolar to AS,not reproduced
same,effect on sarcomere shortening,[5]; higher doses,no effect; also recorded: minimal changes
same,effect on sarcomere shortening,[5]; low doses,slight depression
same,effect on Ca2+ spark frequency,"[2]; DEA/NO, increasing / equimolar doses",no effect; also recorded: did not significantly affect
"CC(C)N[N+]([O-])=N[O-].[Na+] [IPA/NO, isopropylamine diazeniumdiolate]",effect on end-diastolic pressure-volume relationship (EDPVR),[1],downward shift; also recorded: declined significantly
"O=NO [NO2^−, nitrite]",effect on sarcomere shortening,[5]; 25-250 μM NO2- and higher or lower doses,no effect
